According to paper PMC11979273, “A phase I study to evaluate the safety, tolerability, and pharmacokinetics of HEC113995PA·H2O, a novel dual-acting serotonergic antidepressant, in healthy subjects” (Frontiers in Pharmacology, 2025):

Key:
[1] = system: other subtypes of 5-HT receptors, histamine receptors, and acetylcholine receptors; experiment: In vitro affinities or activities to other receptors; assay type: binding
[2] = system: mice; experiment: Behavioral despair models, mice; assay type: in vivo; settings: single, multiple, and chronic administrations, unpublished data
[3] = Multiple ascending-dose study, safety (adverse events); assay type: in vivo
Experimental: Three drug doses (10, 20 and 40 mg) were utilized. A total of 36 healthy subjects of both genders were assigned randomly to the three groups (n = 12), with10 subjects taking HEC113995PA·H2O tablets and 2 taking placebo. The participants in the 10 mg dose group received a single dose daily in the morning after overnight fasting, or a single dose daily after a standard meal in the 20 mg and 40 mg dose groups for 10 consecutive days. Serial blood samples were collected within 0.5 h before drug administration on days 7, 8 and 9, and before and after drug administration on days 1 and 10 to determine plasma concentration and pharmacokinetic characteristics. Safety and tolerability were evaluated on days 4, 8, 13 and 15.
The trial was conducted in a dose-escalation manner, with the administration of the next dose arm only after the tolerability and safety of the previous arm had been fully evaluated. Following the assessments by both the investigator and the sponsor, the next dose level could be reverted to the previous dose group if deemed necessary. In such cases, twelve new healthy subjects (10 taking HEC113995PA·H2O tablets and 2 taking placebo) were enrolled to explore the maximum safe tolerated dose. Throughout the entire trial (including the SAD trial, FE trial and MAD trial), each subject was only allowed to participate in one dose group.
Safety indicators were assessed through adverse events (AE), clinical laboratory tests (including blood routine, blood biochemistry, urine routine), vital signs monitoring (ear temperature), pulse, respiration and blood pressure in a sitting position), 12-lead electrocardiogram (ECG) and physical examinations. Adverse events (AE) and serious adverse events (SAE) were evaluated following the criteria outlined in National Cancer Institute Common Terminology Criteria for Adverse Events (NCI-CTCAE) version 5.0.
Any adverse events that occurred in all subjects during the clinical trial were recorded with the following details: AE name, occurrence time, end time, severity, whether it was classified as a SAE, severity criteria (if applicable), treatment measures and outcomes, actions taken on investigational drug due to the AE, and the causal relationship between the AE and administrated drug, etc. Each AE was recorded separately.
The subjects were under close monitoring at the clinical research center until the sample retention and safety evaluation were completed. During the safety trial, drug intolerance of a given dose was defined as follows: grade 2 or higher drug-related AEs occurred in more than half of the subjects, or grade 3 or higher drug-related AEs occurred in more than one quarter of the subjects. The dose escalation was halted after drug intolerance occurred.

[4] = target: 5-HT transporter (Homo sapiens, UniProt P31645); experiment: In vitro affinity and antagonistic activity for the 5-HT transporter; assay type: binding; settings: unpublished data
[5] = target: T1, 5-HT1A receptor (Homo sapiens, UniProt P08908); experiment: 5-HT1A receptor agonism (EC50, EMAX); assay type: biochemical; settings: in vitro; unpublished data
T1 sequence (P08908 1-422): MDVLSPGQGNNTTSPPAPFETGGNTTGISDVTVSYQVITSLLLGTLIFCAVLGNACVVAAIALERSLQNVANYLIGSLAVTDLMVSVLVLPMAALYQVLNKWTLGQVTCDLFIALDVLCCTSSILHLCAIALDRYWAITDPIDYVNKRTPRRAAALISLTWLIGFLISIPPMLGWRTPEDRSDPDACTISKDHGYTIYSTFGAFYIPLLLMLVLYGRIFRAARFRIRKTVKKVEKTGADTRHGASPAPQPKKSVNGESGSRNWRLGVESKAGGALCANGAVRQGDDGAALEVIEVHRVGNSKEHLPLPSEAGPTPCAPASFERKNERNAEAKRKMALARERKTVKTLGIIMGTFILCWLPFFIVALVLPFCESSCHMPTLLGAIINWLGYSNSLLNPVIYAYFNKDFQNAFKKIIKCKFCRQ

5-HT transporter, sequence (P31645 whole entry, species assumed): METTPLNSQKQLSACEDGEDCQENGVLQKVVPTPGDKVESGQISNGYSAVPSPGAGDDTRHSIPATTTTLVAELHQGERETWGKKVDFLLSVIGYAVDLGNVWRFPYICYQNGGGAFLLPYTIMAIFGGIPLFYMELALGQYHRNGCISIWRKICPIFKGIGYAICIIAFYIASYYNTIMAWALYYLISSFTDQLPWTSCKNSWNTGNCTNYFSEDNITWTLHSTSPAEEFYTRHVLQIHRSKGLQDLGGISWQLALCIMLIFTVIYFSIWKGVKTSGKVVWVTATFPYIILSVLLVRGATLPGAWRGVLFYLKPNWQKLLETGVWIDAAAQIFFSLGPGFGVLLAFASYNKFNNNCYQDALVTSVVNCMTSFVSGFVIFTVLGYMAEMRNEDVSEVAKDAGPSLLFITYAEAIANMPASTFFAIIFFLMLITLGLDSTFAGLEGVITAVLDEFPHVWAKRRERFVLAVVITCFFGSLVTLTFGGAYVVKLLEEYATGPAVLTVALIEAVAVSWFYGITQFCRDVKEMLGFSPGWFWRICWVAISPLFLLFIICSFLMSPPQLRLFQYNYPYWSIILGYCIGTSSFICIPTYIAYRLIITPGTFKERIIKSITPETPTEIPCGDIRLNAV

Compound: Cc1nc(-c2cnc(N3CCN(CCCc4c[nH]c5ccc(C#N)cc45)CC3)nc2)sc1C(N)=O [HEC113995PA·H2O]
- higher affinities towards SERT and the 5-HT1A receptor than other receptors ([1]; in vitro selectivity): over 100 fold
- in vitro affinities or activities to other receptors ([1]; other 5-HT receptor subtypes, histamine and acetylcholine receptors, unpublished data): at the micromolar level
- duration of immobility [2]: significantly reduce
- related TEAE: diarrhea ([3]; MAD 10 mg): 2 cases
- related TEAE: dizziness ([3]; MAD 10 mg): 1 case
- related TEAE: elevated blood triglycerides ([3]; MAD 10 mg): 2 cases
- related TEAE: nausea ([3]; MAD 10 mg): 1 case
- Grade 2 related AE: elevated blood triglycerides ([3]; MAD 10 mg group): 1 case
- related TEAE: elevated gamma-glutamyl transferase (γ-GT) ([3]; MAD 10 mg group): 1 case
- related TEAE: oral ulcer ([3]; MAD 10 mg group): 2 cases
- incidence of subjects experiencing TRAEs ([3]; MAD 10 mg group, 7 subjects): 70.0%
- incidence of subjects experiencing TEAE ([3]; MAD 10 mg group, 8 subjects): 80.0%
- related TEAE: diarrhea ([3]; MAD 20 mg): 1 case
- related TEAE: dizziness ([3]; MAD 20 mg): 1 case
- related TEAE: nausea ([3]; MAD 20 mg): 3 cases
- incidence of subjects experiencing TRAEs ([3]; MAD 20 mg group, 6 subjects): 66.7%
- incidence of subjects experiencing TEAE ([3]; MAD 20 mg group, 8 subjects): 88.9%
- related TEAE: dizziness ([3]; MAD 40 mg): 4 cases
- related TEAE: elevated blood triglycerides ([3]; MAD 40 mg): 3 cases
- related TEAE: nausea ([3]; MAD 40 mg): 1 case
- Grade 2 related AE: elevated blood cholesterol ([3]; MAD 40 mg group): 1 case
- Grade 2 related AE: elevated blood triglycerides ([3]; MAD 40 mg group): 1 case
- related TEAE: elevated gamma-glutamyl transferase (γ-GT) ([3]; MAD 40 mg group): 1 case
- incidence of subjects experiencing TRAEs ([3]; MAD 40 mg group, 6 subjects): 60.0%
- incidence of subjects experiencing TEAE ([3]; MAD 40 mg group, 8 subjects): 80.0%
- Grade 3 or higher TEAEs related to the investigational product ([3]; MAD trial): no Grade 3 or higher TEAEs
- related TEAE incidence: elevated gamma-glutamyl transferase (γ-GT) ([3]; MAD, 2/29): 6.9%
- related TEAE incidence: oral ulcer ([3]; MAD, 2/29): 6.9%
- related TEAE incidence: hyperuricemia ([3]; MAD, 2/29, both cases in the 40 mg group): 6.9%
- related TEAE incidence: diarrhea ([3]; MAD, 3/29): 10.3%
- related TEAE incidence: dry mouth ([3]; MAD, 3/29, all cases in the 10 mg group): 10.3%
- related TEAE incidence: headache ([3]; MAD, 3/29, exclusively observed in the 20 mg group): 10.3%
- related TEAE incidence: terminal insomnia ([3]; MAD, 3/29, limited to the 20 mg group): 10.3%
- related TEAE incidence: elevated blood triglycerides ([3]; MAD, 5/29): 17.2%
- related TEAE incidence: nausea ([3]; MAD, 5/29): 17.2%
- related TEAE incidence: dizziness ([3]; MAD, 6/29): 20.7%
- incidence of Grade 2 AEs related to the investigational product ([3]; MAD, HEC113995PA·H2O group, 3 cases): 10.3%
- incidence of subjects experiencing TRAEs ([3]; MAD, HEC113995PA·H2O trial group, 19 subjects, 48 TRAEs): 65.5%
- incidence of subjects experiencing TEAE ([3]; MAD, HEC113995PA·H2O trial group, 24 subjects, 85 incidents): 82.8%
- tolerability ([3]; healthy Chinese subjects, multiple doses range 10–40 mg daily): well tolerated
- affinity and antagonistic activity for the 5-HT transporter [4]: at the nanomolar level
- 5-HT1A receptor activity relative to Vortioxetine [5]: comparable activity
- activity in agonizing 5-HT1A receptor relative to HEC61139 (Vilazodone) [5]: slightly weaker activity
